The structures appear in SMILES notation. Where a name gives a salt, the structure may show the parent alone.

The term IC50 denotes the concentration needed to halve the response being measured. A low value points to greater potency in that assay.

The target of this experiment is lactate dehydrogenase A (LDH-A) (Homo sapiens, UniProt P00338). Description: biochemical.

Description: Assay buffer (50 mM potassium phosphate, pH 7.0, 50 mM NaCl, 0.25 mM CHAPS, 0.0025% BSA) is added to one column of a standard assay plate stamped with DMSO solutions of test compounds. A solution of LDH-A and NAD+ (final concentrations: 300 pM LDH-A and 150 uM NAD+) in assay buffer is added to remaining plate wells containing DMSO solutions of test compounds and DMSO only control wells and the mixtures incubated for 10 min at room temperature. A solution of lactate, resazurin, diaphorase (final concentrations: 2 mM lactate, 6.25 uM resazurin, 0.4 U/mL diaphorase) in assay buffer is added to all wells and the mixtures incubated for 30 min at room temperature. Stop solution (2 uL, components: assay buffer and 25 mM oxamate) is added to each well and the fluoresecence intensity increase (FLINT) measured at 590 nm on a ViewLux®imager.

With `COc1ncc(-c2ccc3c(Nc4cc(C(=O)O)cc(C(C)C(C)C)c4)c(C(N)=O)cnc3c2)c(OC)n1` (stereo not shown) [Example 60, 3-({3-(aminocarbonyl)-7-[2,4-bis(methyloxy)-5-pyrimidinyl]-4-quinolinyl}amino)-5-(1,2-dimethylpropyl)benzoic acid, acetate salt], the IC50 is 63.1 nM.

(Values after US20130225524A1, “Chemical Compounds” (priority 2010, published 2013).)
